Measurements from patent US10196403B2, “Compounds and compositions and uses thereof” (Sunovion Pharmaceuticals Inc., priority 2016, dated 2019).

Test system: mice
Assay: Neuropharmacological Assay (SmartCube)
Assay type: in vivo
Settings: for minimal effective dose: Mus musculus, read-out: POTENCY (minimal effective dose, MED); for minimal effective dose / POTENCY (minimal effective dose, MED): MED = dose having 50% or more total activity in SmartCube; for AD: ADHD (SmartCube probability) / AG: analgesic (SmartCube probability) / AX: anxiolytic (SmartCube probability) / CE: cognitive enhancer (SmartCube probability) / DP: anti-depressant (SmartCube probability) / MS: mood stabilizer (SmartCube probability) / PS: anti-psychotic (SmartCube probability) / SD: sedative hypnotic (SmartCube probability) / UN: uncharacterized CNS activity (SmartCube probability): mice, i.p. 15 min before test, most efficacious dose(s) of 3 doses
In short: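 Behavior of treated mice captured by digital video and matched algorithmically against reference drug classes, yielding a class probability at the most efficacious of 3 i.p. doses (15 min pretreatment, NMP/PEG/propylene glycol vehicle). Potency given as MED, the mpk dose reaching ≥50% total activity across usually 0.3–30 mpk.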

NC[C@@H]1OCCc2cc(F)ccc21 [Example 34, (R)-(6-fluoroisochroman-1-yl)methanamine]
minimal effective dose: < 3 mg/kg
AD: ADHD (SmartCube probability): + (LOQ≤ + <5%)
AG: analgesic (SmartCube probability): ++ (5%≤ ++ <25%)
AX: anxiolytic (SmartCube probability): ++ (5%≤ ++ <25%)
CE: cognitive enhancer (SmartCube probability): ++ (5%≤ ++ <25%)
DP: anti-depressant (SmartCube probability): ++ (5%≤ ++ <25%)
MS: mood stabilizer (SmartCube probability): ++ (5%≤ ++ <25%)
PS: anti-psychotic (SmartCube probability): +++ (25%≤ +++ <50%)
SD: sedative hypnotic (SmartCube probability): + (LOQ≤ + <5%)
UN: uncharacterized CNS activity (SmartCube probability): +++ (25%≤ +++ <50%)

NC[C@@H]1OCCc2cccc(F)c21 [Example 35, (R)-(8-fluoroisochroman-1-yl)methanamine]
minimal effective dose: < 3 mg/kg
AD: ADHD (SmartCube probability): ++ (5%≤ ++ <25%)
AG: analgesic (SmartCube probability): ++ (5%≤ ++ <25%)
AX: anxiolytic (SmartCube probability): ++ (5%≤ ++ <25%)
CE: cognitive enhancer (SmartCube probability): ++ (5%≤ ++ <25%)
DP: anti-depressant (SmartCube probability): ++++ (50%≤ ++++)
MS: mood stabilizer (SmartCube probability): + (LOQ≤ + <5%)
PS: anti-psychotic (SmartCube probability): ++ (5%≤ ++ <25%)
SD: sedative hypnotic (SmartCube probability): ++ (5%≤ ++ <25%)
UN: uncharacterized CNS activity (SmartCube probability): ++++ (50%≤ ++++)

CNC[C@H]1OCCc2cccc(Cl)c21 [Example 36, (S)-1-(8-chloroisochroman-1-yl)-N-methylmethanamine]
minimal effective dose: 3 to 10 mg/kg
AD: ADHD (SmartCube probability): + (LOQ≤ + <5%)
AG: analgesic (SmartCube probability): + (LOQ≤ + <5%)
AX: anxiolytic (SmartCube probability): ++ (5%≤ ++ <25%)
CE: cognitive enhancer (SmartCube probability): ++ (5%≤ ++ <25%)
DP: anti-depressant (SmartCube probability): + (LOQ≤ + <5%)
MS: mood stabilizer (SmartCube probability): + (LOQ≤ + <5%)
PS: anti-psychotic (SmartCube probability): ++ (5%≤ ++ <25%)
SD: sedative hypnotic (SmartCube probability): + (LOQ≤ + <5%)
UN: uncharacterized CNS activity (SmartCube probability): +++ (25%≤ +++ <50%)

CNC[C@@H]1OCCc2cccc(Cl)c21 [Example 37, (R)-1-(8-chloroisochroman-1-yl)-N-methylmethanamine]
minimal effective dose: < 3 mg/kg
AD: ADHD (SmartCube probability): + (LOQ≤ + <5%)
AG: analgesic (SmartCube probability): ++ (5%≤ ++ <25%)
AX: anxiolytic (SmartCube probability): + (LOQ≤ + <5%)
CE: cognitive enhancer (SmartCube probability): ++ (5%≤ ++ <25%)
DP: anti-depressant (SmartCube probability): ++ (5%≤ ++ <25%)
MS: mood stabilizer (SmartCube probability): + (LOQ≤ + <5%)
PS: anti-psychotic (SmartCube probability): ++ (5%≤ ++ <25%)
SD: sedative hypnotic (SmartCube probability): + (LOQ≤ + <5%)
UN: uncharacterized CNS activity (SmartCube probability): ++++ (50%≤ ++++)

CNC[C@H]1OCCc2c(C)cccc21 [Example 38, (S)-N-methyl-1-(5-methylisochroman-1-yl)methanamine]
minimal effective dose: < 3 mg/kg
AD: ADHD (SmartCube probability): + (LOQ≤ + <5%)
AG: analgesic (SmartCube probability): ++ (5%≤ ++ <25%)
AX: anxiolytic (SmartCube probability): ++ (5%≤ ++ <25%)
CE: cognitive enhancer (SmartCube probability): + (LOQ≤ + <5%)
DP: anti-depressant (SmartCube probability): ++ (5%≤ ++ <25%)
MS: mood stabilizer (SmartCube probability): + (LOQ≤ + <5%)
PS: anti-psychotic (SmartCube probability): ++ (5%≤ ++ <25%)
SD: sedative hypnotic (SmartCube probability): ++ (5%≤ ++ <25%)
UN: uncharacterized CNS activity (SmartCube probability): +++ (25%≤ +++ <50%)

CNC[C@@H]1OCCc2c(C)cccc21 [Example 39, (R)-N-methyl-1-(5-methylisochroman-1-yl)methanamine]
minimal effective dose: < 3 mg/kg
AD: ADHD (SmartCube probability): + (LOQ≤ + <5%)
AG: analgesic (SmartCube probability): ++ (5%≤ ++ <25%)
AX: anxiolytic (SmartCube probability): ++ (5%≤ ++ <25%)
CE: cognitive enhancer (SmartCube probability): ++ (5%≤ ++ <25%)
DP: anti-depressant (SmartCube probability): ++++ (50%≤ ++++)
MS: mood stabilizer (SmartCube probability): + (LOQ≤ + <5%)
PS: anti-psychotic (SmartCube probability): ++ (5%≤ ++ <25%)
SD: sedative hypnotic (SmartCube probability): + (LOQ≤ + <5%)
UN: uncharacterized CNS activity (SmartCube probability): +++ (25%≤ +++ <50%)

CNC[C@H]1OCCc2cccc(C)c21 [Example 40, (S)-N-methyl-1-(8-methylisochroman-1-yl)methanamine]
minimal effective dose: < 3 mg/kg
AD: ADHD (SmartCube probability): + (LOQ≤ + <5%)
AG: analgesic (SmartCube probability): + (LOQ≤ + <5%)
AX: anxiolytic (SmartCube probability): +++ (25%≤ +++ <50%)
CE: cognitive enhancer (SmartCube probability): + (LOQ≤ + <5%)
DP: anti-depressant (SmartCube probability): ++ (5%≤ ++ <25%)
MS: mood stabilizer (SmartCube probability): + (LOQ≤ + <5%)
PS: anti-psychotic (SmartCube probability): ++ (5%≤ ++ <25%)
SD: sedative hypnotic (SmartCube probability): ++ (5%≤ ++ <25%)
UN: uncharacterized CNS activity (SmartCube probability): +++ (25%≤ +++ <50%)

CNC[C@@H]1OCCc2cccc(C)c21 [Example 41, (R)-N-methyl-1-(8-methylisochroman-1-yl)methanamine]
minimal effective dose: < 3 mg/kg
AD: ADHD (SmartCube probability): + (LOQ≤ + <5%)
AG: analgesic (SmartCube probability): ++ (5%≤ ++ <25%)
AX: anxiolytic (SmartCube probability): ++ (5%≤ ++ <25%)
CE: cognitive enhancer (SmartCube probability): + (LOQ≤ + <5%)
DP: anti-depressant (SmartCube probability): ++ (5%≤ ++ <25%)
MS: mood stabilizer (SmartCube probability): + (LOQ≤ + <5%)
PS: anti-psychotic (SmartCube probability): ++++ (50%≤ ++++)
SD: sedative hypnotic (SmartCube probability): ++ (5%≤ ++ <25%)
UN: uncharacterized CNS activity (SmartCube probability): ++++ (50%≤ ++++)

CNC[C@H]1OCCc2cccc(C#N)c21 [Example 44, (S)-1-((methylamino)methyl)isochromane-8-carbonitrile]
minimal effective dose: 3 to 10 mg/kg
AD: ADHD (SmartCube probability): + (LOQ≤ + <5%)
AG: analgesic (SmartCube probability): ++ (5%≤ ++ <25%)
AX: anxiolytic (SmartCube probability): ++ (5%≤ ++ <25%)
CE: cognitive enhancer (SmartCube probability): ++ (5%≤ ++ <25%)
DP: anti-depressant (SmartCube probability): + (LOQ≤ + <5%)
MS: mood stabilizer (SmartCube probability): + (LOQ≤ + <5%)
PS: anti-psychotic (SmartCube probability): ++ (5%≤ ++ <25%)
SD: sedative hypnotic (SmartCube probability): + (LOQ≤ + <5%)
UN: uncharacterized CNS activity (SmartCube probability): +++ (25%≤ +++ <50%)

CNC[C@@H]1OCCc2cccc(C#N)c21 [Example 45, (R)-1-((methylamino)methyl)isochromane-8-carbonitrile]
minimal effective dose: 3 to 10 mg/kg
AD: ADHD (SmartCube probability): + (LOQ≤ + <5%)
AG: analgesic (SmartCube probability): ++ (5%≤ ++ <25%)
AX: anxiolytic (SmartCube probability): ++ (5%≤ ++ <25%)
CE: cognitive enhancer (SmartCube probability): ++ (5%≤ ++ <25%)
DP: anti-depressant (SmartCube probability): + (LOQ≤ + <5%)
MS: mood stabilizer (SmartCube probability): + (LOQ≤ + <5%)
PS: anti-psychotic (SmartCube probability): ++ (5%≤ ++ <25%)
SD: sedative hypnotic (SmartCube probability): + (LOQ≤ + <5%)
UN: uncharacterized CNS activity (SmartCube probability): ++++ (50%≤ ++++)

CNC[C@H]1OCCc2c(C#N)cccc21 [Example 46, (S)-1-((methylamino)methyl)isochromane-5-carbonitrile]
minimal effective dose: 3 to 10 mg/kg
AD: ADHD (SmartCube probability): + (LOQ≤ + <5%)
AG: analgesic (SmartCube probability): + (LOQ≤ + <5%)
AX: anxiolytic (SmartCube probability): ++ (5%≤ ++ <25%)
CE: cognitive enhancer (SmartCube probability): ++ (5%≤ ++ <25%)
DP: anti-depressant (SmartCube probability): ++ (5%≤ ++ <25%)
MS: mood stabilizer (SmartCube probability): + (LOQ≤ + <5%)
PS: anti-psychotic (SmartCube probability): ++ (5%≤ ++ <25%)
SD: sedative hypnotic (SmartCube probability): ++ (5%≤ ++ <25%)
UN: uncharacterized CNS activity (SmartCube probability): +++ (25%≤ +++ <50%)

CNC[C@@H]1OCCc2c(C#N)cccc21 [Example 47, (R)-1-((methylamino)methyl)isochromane-5-carbonitrile]
minimal effective dose: 3 to 10 mg/kg
AD: ADHD (SmartCube probability): + (LOQ≤ + <5%)
AG: analgesic (SmartCube probability): + (LOQ≤ + <5%)
AX: anxiolytic (SmartCube probability): ++ (5%≤ ++ <25%)
CE: cognitive enhancer (SmartCube probability): + (LOQ≤ + <5%)
DP: anti-depressant (SmartCube probability): ++++ (50%≤ ++++)
MS: mood stabilizer (SmartCube probability): + (LOQ≤ + <5%)
PS: anti-psychotic (SmartCube probability): ++ (5%≤ ++ <25%)
SD: sedative hypnotic (SmartCube probability): ++ (5%≤ ++ <25%)
UN: uncharacterized CNS activity (SmartCube probability): ++ (5%≤ ++ <25%)

CC(N)C1OCCc2ccc3c(c21)OCO3 (stereo not drawn) [Example 55]
POTENCY (minimal effective dose, MED): C (>10 to ≤30 mpk)
AD: ADHD (SmartCube probability): + (LOQ≤ + <5%)
AG: analgesic (SmartCube probability): ++ (5%≤ ++ <25%)
AX: anxiolytic (SmartCube probability): ++ (5%≤ ++ <25%)
CE: cognitive enhancer (SmartCube probability): + (LOQ≤ + <5%)
DP: anti-depressant (SmartCube probability): ++ (5%≤ ++ <25%)
MS: mood stabilizer (SmartCube probability): + (LOQ≤ + <5%)
PS: anti-psychotic (SmartCube probability): + (LOQ≤ + <5%)
SD: sedative hypnotic (SmartCube probability): + (LOQ≤ + <5%)
UN: uncharacterized CNS activity (SmartCube probability): ++++ (50%≤ ++++)

CNC(C)C1OCCc2ccc3c(c21)OCO3 (stereo not drawn) [Example 57]
POTENCY (minimal effective dose, MED): D (>30 mpk)
AD: ADHD (SmartCube probability): + (LOQ≤ + <5%)
AG: analgesic (SmartCube probability): ++ (5%≤ ++ <25%)
AX: anxiolytic (SmartCube probability): ++ (5%≤ ++ <25%)
CE: cognitive enhancer (SmartCube probability): ++ (5%≤ ++ <25%)
DP: anti-depressant (SmartCube probability): + (LOQ≤ + <5%)
MS: mood stabilizer (SmartCube probability): + (LOQ≤ + <5%)
PS: anti-psychotic (SmartCube probability): + (LOQ≤ + <5%)
SD: sedative hypnotic (SmartCube probability): + (LOQ≤ + <5%)
UN: uncharacterized CNS activity (SmartCube probability): +++ (25%≤ +++ <50%)

CNC[C@H]1OCCCc2cccc(F)c21 [Example 60, (S)-1-(9-fluoro-1,3,4,5-tetrahydrobenzo[c]oxepin-1-yl)-N-methylmethanamine]
minimal effective dose: 3 to 10 mg/kg
AD: ADHD (SmartCube probability): + (LOQ≤ + <5%)
AG: analgesic (SmartCube probability): + (LOQ≤ + <5%)
AX: anxiolytic (SmartCube probability): ++ (5%≤ ++ <25%)
CE: cognitive enhancer (SmartCube probability): + (LOQ≤ + <5%)
DP: anti-depressant (SmartCube probability): ++ (5%≤ ++ <25%)
MS: mood stabilizer (SmartCube probability): + (LOQ≤ + <5%)
PS: anti-psychotic (SmartCube probability): ++ (5%≤ ++ <25%)
SD: sedative hypnotic (SmartCube probability): ++++ (50%≤ ++++)
UN: uncharacterized CNS activity (SmartCube probability): +++ (25%≤ +++ <50%)
